Measurements as given in the NIST ThermoML archive (doi:10.1016/j.tca.2010.05.016).

Assay: wn = mass fraction of the nth substance listed
Conditions: 101 kPa, Liquid; for speed of sound: Vibrating Tube; for mass density: Vibrating tube method

O=C[C@H](O)[C@@H](O)[C@H](O)[C@H](O)CO [D-glucose] + O
Conditions | mass density, 288.15 K [kg/m3] | mass density, 293.15 K [kg/m3] | mass density, 298.15 K [kg/m3] | mass density, 303.15 K [kg/m3] | mass density, 308.15 K [kg/m3] | speed of sound, 288.15 K [m/s] | speed of sound, 293.15 K [m/s] | speed of sound, 298.15 K [m/s] | speed of sound, 303.15 K [m/s] | speed of sound, 308.15 K [m/s]
w1 = 0.0206 | – | 1006.08 | 1004.86 | 1003.41 | 1001.75 | 1475.6 | – | – | 1517.3 | 1527
w1 = 0.0396 | 1014.53 | 1013.52 | 1012.25 | 1010.76 | – | 1482.2 | 1497.7 | 1511.3 | 1523 | 1533
w1 = 0.0591 | 1022.21 | 1021.13 | 1019.81 | 1018.27 | 1016.54 | 1490 | 1505.1 | 1518.4 | 1529.9 | 1539.5
